Structures can show the parent of a compound that is named as a salt. Where two headings read alike, the source gives them in different places.
How the values were obtained:
Assay type in all cases: physicochemical
[1] = Dynamic vapor sorption (DVS Intrinsic, 25° C., 0-90% RH)
Method: Moisture sorption/desorption data were collected on a DVS Intrinsic (SMS, UK). The sample was placed into a tared sample chamber and automatically weighed. The sample was dried at 40° C. until the dm/dt was less than 0.002% and cooled to 25° C. Set the instrument parameters as below. • Step time (min): 60 min • Sample temperature: 25° C. • Cycle: Full cycle • Adsorption: 0, 10, 20, 30, 40, 50, 60, 70, 80, 90 • Desorption: 80, 70, 60, 50, 40, 30, 20, 10, 0 • Save Data Rate: 5 s • Total flow rate: 200 sccm • Post experiment total flow: 200 sccm
The associated DVS isotherm plot of Form A of the hemi-fumarate salt is depicted in FIG. 10.

[2] = Mechanical treatment (manual grinding) of Form A of the hemi-fumarate salt
Method: Appropriate amount of the Form A of the hemi-fumarate salt was ground for about two and five minutes manually and the samples were analyzed by XRPD (Example 1, XRPD). […] The crystallinity became low after grinding for five minutes. Solubility of the Form A of the Hemi-Fumarate Salt of the Compound of Formula (I) in Biologically Relevant Media

[3] = Slurry study of Form A of the hemi-fumarate salt (XRPD of solids); conditions: room temperature, three days (footnote *)
[4] = Physical stability under high humidity (92.5% RH); conditions: 11 days
Method: The physical stability of the Form A of the hemi-fumarate salt was evaluated under high humidity (92.5% RH) for 11 days.

[5] = Solubility of hemi-fumarate Form A by visual assessment upon solvent addition
Method: The solubility of the Form A of the hemi-fumarate salt was evaluated by visual assessment of samples upon solvent addition, employing organic solvents and water. Among the solvents, the Form A of the hemi-fumarate salt had the highest solubility in THF, MeOH, EtOH and acetone (>50 mg/mL).

[6] = Inter-conversion study (competitive slurry) of hemi-fumarate Form A and Form B in IPA; conditions: RT and 50° C.
Method: Equal amount of the Form A of the hemi-fumarate salt and the Form B of the hemi-fumarate salt were added into IPA, and the suspensions were stirred at RT or 50° C. for 3 days, respectively. Residual solids were obtained and characterized. […] The overlay of the XRPD pattern from the inter-conversion study of the hemi-fumarate salt is depicted in FIG. 15.

Cc1cc(NC(=O)[C@H](O)c2cc(F)cc(F)c2)ccc1-c1cnc(N)c(C(=O)NC(C)C)c1 [Form A of the hemi-fumarate salt, (R)-2-amino-5-(4-(2-(3,5-difluorophenyl)-2-hydroxyacetamido)-2-methylphenyl)-N-isopropylnicotinamide]
Crystal form after DVS analysis [1]: did not change
Hygroscopicity (DVS) ([1]; 25° C.): slightly hygroscopic
Water uptake (DVS) ([1]; at 80% RH, 25° C.): 0.66%
Crystallinity after manual grinding ([2]; grinding for five minutes): became low
XRPD form after manual grinding ([2]; ground for about two and five minutes manually): remained unchanged and no new form was obtained by grinding
XRPD result after slurry ([3]; Heptane): Form A*
XRPD result after slurry ([3]; IPAc): Form A*
XRPD result after slurry ([3]; Toluene): Form A*
Physical stability (form by XRPD) [4]: No form change was detected
solubility ([5]; 2-butanone, organic solvent or mixture, thermodynamic from solid, 2-butanone, read-out: Solubility): > 27.5 mg/mL
solubility ([5]; Acetone): >50 mg/mL
solubility ([5]; EtOAc, organic solvent or mixture, thermodynamic from solid, EtOAc, read-out: Solubility): > 9.8 mg/mL
solubility ([5]; EtOH): >53.4 mg/mL
solubility ([5]; EtOH, organic solvent or mixture, thermodynamic from solid, EtOH, read-out: Solubility): > 50 mg/mL
solubility ([5]; IPA, organic solvent or mixture, thermodynamic from solid, IPA, read-out: Solubility): > 17.8 mg/mL
solubility ([5]; IPAc, organic solvent or mixture, thermodynamic from solid, IPAc, read-out: Solubility): > 2.1 mg/mL
solubility ([5]; MTBE, organic solvent or mixture, thermodynamic from solid, MTBE, read-out: Solubility): < 2.2 mg/mL
solubility ([5]; MeCN, organic solvent or mixture, thermodynamic from solid, MeCN, read-out: Solubility): > 3.2 mg/mL
solubility ([5]; MeOH): >62.2 mg/mL
solubility ([5]; MeOH, organic solvent or mixture, thermodynamic from solid, MeOH, read-out: Solubility): > 50 mg/mL
solubility ([5]; THF): >81.8 mg/mL
solubility ([5]; THF, organic solvent or mixture, thermodynamic from solid, THF, read-out: Solubility): > 50 mg/mL
solubility ([5]; acetone, organic solvent or mixture, thermodynamic from solid, Acetone, read-out: Solubility): > 50 mg/mL
solubility ([5]; heptane, organic solvent or mixture, thermodynamic from solid, Heptane, read-out: Solubility): < 0.63 mg/mL
solubility ([5]; isobutanol, organic solvent or mixture, thermodynamic from solid, Isobutanol, read-out: Solubility): > 5.8 mg/mL
solubility ([5]; toluene, organic solvent or mixture, thermodynamic from solid, Toluene, read-out: Solubility): < 0.96 mg/mL
solubility ([5]; water, thermodynamic from solid, Water, read-out: Solubility): < 0.83 mg/mL
Relative stability of hemi-fumarate Form A vs Form B [6]: more stable form

From US20260265199A1, “CRYSTALLINE FORMS OF (R)-2-AMINO-5-(4-(2-(3,5-DIFLUOROPHENYL)-2-HYDROXYACETAMIDO)-2-METHYLPHENYL)-N-ISOPROPYLNICOTINAMIDE AND METHODS FOR USING THE SAME” (HIBERCELL, INC., priority 2023, published 2026)
